# Patent publication US7732401B2, “Inhibitor of TGF-β activation reaction” (Riken, priority 2007, dated 2010)
# Test system: TGF-β activation
# Assay: Inventors' additional tests of TGF-β activation with synthetic KRFK and LSKL peptides
# Excerpt: Moreover, the group of Murphy-Ullrich at the University of Alabama, U.S.A. investigated the adherent-type TGF-β activation reaction by a glycoprotein, thrombospondin 1, and reported that TGF-β is activated by binding of KRFK sequence corresponding to amino acid numbers 412-415 of thrombospondin 1 to LSKL sequence corresponding to amino acid numbers 54-57 of LAP, and that the synthetic KRFK peptide activates TGF-β, whereas the synthetic LSKL peptide inhibits the TGF-β activation reaction (Schultz-Cherry et al., J. Biol. Chem. 270: 7304-7310, 1995; Crawford et al., Cell 93: 1159-1170, 1998; Ribeiro et al., J. Biol. Chem. 274: 13586-13593, 1999; Murphy-Ullrich and Poczatek Cytokine & Growth Factor Reviews 11: 59-69, 2000). The LSKL sequence derived from amino acid numbers 54-57 of the aforementioned LAP overlaps with the plasmin cleavage site K56-L57 identified by the present inventors. By binding to and cutting this portion, respectively, thrombospondin 1 and proteases may inhibit a noncovalent bond between this portion and active TGF-β molecule, resulting in release of the active TGF-β molecule from a latent complex (namely the TGF-β activation reaction). […] Murphy-Ullrich et al. indicated an involvement of a thrombospondin 1-dependent adherent-type TGF-β activation reaction in the pathogenesis of lung or pancreatic diseases, but not in the pathogenesis of liver diseases.
substance,measurement,value
LSKL [LSKL peptide],inhibition of TGF-β activation,could not reproduce
